Reference: ChEMBL document CHEMBL1201862, “PubChem BioAssay data set” (2004)
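Growth conditions: 96-well plates. Treatment: test compound, 48 hours, 5 concentrations. Analysis: linear interpolation between bracketing concentrations; unreached endpoints set to highest concentration. Here, GI50 denotes the concentration required for 50% inhibition of growth.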 Activity calls are given as the source filed them. No stated cut-off is given here; in the data, active = GI50 up to about 1.1 µM and inactive = higher.

Experiments:
Assay in all cases: inhibition of tumour cell growth, NCI panel, 48 h
[1] = test system: NCI-H460
[2] = test system: U-251
[3] = test system: LOX IMVI
[4] = test system: TK-10
[5] = test system: OVCAR-4
[6] = test system: SF-295
[7] = test system: SF-539
[8] = test system: HL-60
[9] = test system: RXF 393
[10] = test system: MOLT-4
[11] = test system: OVCAR-3
[12] = test system: SN12C
[13] = test system: HCT-15
[14] = test system: SW-620
[15] = test system: RPMI-8226

Structure (SMILES)	GI50 [1]	GI50 [2]	GI50 [3]	GI50 [4]	GI50 [5]	GI50 [6]	GI50 [7]	GI50 [8]	GI50 [9]	GI50 [10]	GI50 [11]	GI50 [12]	GI50 [13] [µM]	GI50 [14]	GI50 [15]
COc1cc2cc(OC(C)=O)c3cc4c(cc3c2c(OC)c1OC)OCO4	> 100 µM (inactive)	> 100 µM (inactive)	> 100 µM (inactive)	> 100 µM (inactive)	> 100 µM (inactive)	> 100 µM (inactive)	> 100 µM (inactive)	> 100 µM (inactive)	> 100 µM (inactive)	> 100 µM (inactive)	> 100 µM (inactive)	> 100 µM (inactive)	> 100	> 100 µM (inactive)	
COc1ccc(C(N)=O)cc1/N=N/N(C)C	> 100 µM (inactive)	> 100 µM (inactive)	> 100 µM (inactive)	> 100 µM (inactive)	> 100 µM (inactive)	> 100 µM (inactive)	> 100 µM (inactive)	> 100 µM (inactive)		> 100 µM (inactive)	> 100 µM (inactive)	> 100 µM (inactive)	> 100	> 100 µM (inactive)	> 100 µM (inactive)
O=C1C=CC(CC(=O)c2ccc3ccccc3c2)O1 (configuration not stated)	24.2 µM (inactive)	18.2 µM (inactive)	21 µM (inactive)	32.8 µM (inactive)	24.9 µM (inactive)	> 100 µM (inactive)	18.9 µM (inactive)	17.1 µM (inactive)	20.5 µM (inactive)	21.7 µM (inactive)	25.2 µM (inactive)	18.8 µM (inactive)	20.5	26.5 µM (inactive)	
CN(C)CCNC(=O)c1cccc2ncc(-c3ccccc3)nc12	4.41 µM (inactive)	8.26 µM (inactive)	7.66 µM (inactive)	6.93 µM (inactive)	8.77 µM (inactive)	14.2 µM (inactive)	4.51 µM (inactive)	14.4 µM (inactive)	5.86 µM (inactive)	2.52 µM (inactive)	19.5 µM (inactive)	6.14 µM (inactive)	5.37	5.31 µM (inactive)	
CCC(=O)N1C(=S)SC[C@H]1C(=O)OC		> 100 µM (inactive)	> 100 µM (inactive)	> 100 µM (inactive)	> 100 µM (inactive)	> 100 µM (inactive)	> 100 µM (inactive)	> 100 µM (inactive)	> 100 µM (inactive)	> 100 µM (inactive)	> 100 µM (inactive)	> 100 µM (inactive)		> 100 µM (inactive)	
Cc1cccc(C(C)(C)C)c1NC(=O)C(=O)C(c1cnc2ccccc2n1)[N+](=O)[O-] (configuration not stated)	62.2 µM (inactive)	> 100 µM (inactive)	> 100 µM (inactive)	> 100 µM (inactive)	> 100 µM (inactive)	> 100 µM (inactive)	> 100 µM (inactive)	65.3 µM (inactive)	> 100 µM (inactive)	58.1 µM (inactive)		> 100 µM (inactive)	> 100	> 100 µM (inactive)	60.3 µM (inactive)
CCOC(=O)C(=O)Nc1ccc(C)c(C)c1	> 60.4 µM (inactive)	> 100 µM (inactive)	> 56.1 µM (inactive)	> 100 µM (inactive)	> 100 µM (inactive)	> 100 µM (inactive)	> 100 µM (inactive)	> 54.8 µM (inactive)	> 100 µM (inactive)	> 100 µM (inactive)		> 100 µM (inactive)	> 41.2	5.81 µM (inactive)	> 100 µM (inactive)
CC1=N/C(=C\c2ccc(N)cc2)C(=O)N1Nc1nnc(NN2C(=O)/C(=C/c3ccc(N)cc3)N=C2C)c2ccccc12	> 100 µM (inactive)	45.4 µM (inactive)	41.9 µM (inactive)		33 µM (inactive)	26.6 µM (inactive)	24.8 µM (inactive)	22.1 µM (inactive)	22.5 µM (inactive)	35.2 µM (inactive)		96.2 µM (inactive)	82.2	83.9 µM (inactive)	26.4 µM (inactive)
N=C(N)SCc1cn2ccccc2n1	> 100 µM (inactive)	> 100 µM (inactive)	> 100 µM (inactive)	> 100 µM (inactive)	> 100 µM (inactive)	> 100 µM (inactive)	> 100 µM (inactive)	> 100 µM (inactive)		> 100 µM (inactive)	> 100 µM (inactive)	> 100 µM (inactive)	> 100	> 100 µM (inactive)	> 100 µM (inactive)
COc1ccc2cc1Oc1ccc(cc1)CC1c3cc(c(OC)cc3CCN1C)Oc1c3c(cc4c1C(C2)N(C)CC4)OCO3 (configuration not stated)	14.2 µM (inactive)	5.14 µM (inactive)	1.85 µM (inactive)	2.19 µM (inactive)	4.58 µM (inactive)	10.3 µM (inactive)	2.34 µM (inactive)	1.92 µM (inactive)	1.83 µM (inactive)	5.52 µM (inactive)	15.7 µM (inactive)	11.4 µM (inactive)	4.42	13.1 µM (inactive)	
O=C1c2cccc3c(Cl)ccc(c23)C(=O)N1CCCN1CCN(CCCN2C(=O)c3cccc4c(Cl)ccc(c34)C2=O)CC1	> 100 µM (inactive)	55.7 µM (inactive)	> 100 µM (inactive)	> 100 µM (inactive)	> 100 µM (inactive)	97.1 µM (inactive)	> 100 µM (inactive)	> 100 µM (inactive)		57.3 µM (inactive)	> 100 µM (inactive)	> 100 µM (inactive)	> 100	> 100 µM (inactive)	> 100 µM (inactive)
O=C1OC2(c3ccccc3Oc3ccccc32)c2ccccc21	> 100 µM (inactive)	> 100 µM (inactive)	> 100 µM (inactive)	> 100 µM (inactive)	> 100 µM (inactive)	> 100 µM (inactive)	> 100 µM (inactive)	99.8 µM (inactive)		> 100 µM (inactive)	> 100 µM (inactive)	> 100 µM (inactive)	> 100	> 100 µM (inactive)	> 100 µM (inactive)
CC1C2CC=CC(=O)[C@@]2(C)CCC12OCCO2 (some centres not stated)	> 100 µM (inactive)	> 100 µM (inactive)		> 100 µM (inactive)	> 100 µM (inactive)	> 100 µM (inactive)	> 100 µM (inactive)	> 10 µM (inactive)	> 100 µM (inactive)	> 100 µM (inactive)	> 100 µM (inactive)	> 100 µM (inactive)		> 100 µM (inactive)	
COc1c(C)c(O)c2c(=O)cc(-c3ccccc3)oc2c1C	> 100 µM (inactive)	> 100 µM (inactive)	> 100 µM (inactive)	> 100 µM (inactive)	> 100 µM (inactive)	> 100 µM (inactive)	> 100 µM (inactive)			> 100 µM (inactive)	> 100 µM (inactive)	> 100 µM (inactive)	> 100	> 100 µM (inactive)	
O=C1c2cccc(O)c2C(=O)c2c(O)cc(CO)cc21 [ALOE-EMODIN]	29.4 µM (inactive)	> 100 µM (inactive)	26.2 µM (inactive)	> 100 µM (inactive)	77.8 µM (inactive)	96.2 µM (inactive)		24.8 µM (inactive)	> 100 µM (inactive)	40.8 µM (inactive)		35.4 µM (inactive)	28.1	30.5 µM (inactive)	31.5 µM (inactive)
